Earlier results in US20220339173A1, “ORAL COMPOSITION FOR IMPROVING MEMORY-LEARNING ABILITY” (priority 2019, published 2022).

Test system: c-Fos activity

phosphatidylserine
c-Fos activity in the hippocampus (hippocampus): no changes
c-Fos activity in the paraventricular nucleus (paraventricular nucleus): changes in c-Fos activity in the brain region are found
